Experiments:
[1] = test system: SK7 mouse ES cells; assay: Screening for β cell differentiation enhancer using SK7 mouse ES cells (Pdx1-GFP); format: cell-based; details: LY411575 alone
Description: The SK7 mouse ES cells were differentiated into β cells basically according to the previous report (Nakashima et al., 2015). Briefly, the cells were seeded at 5,000 cells per well in CellBIND 384-well (CORNING, 3770) cell culture plate or at 20,000 cells per well in a 96-well plate (Sigma) coated with 0.2% gelatin. Then, the cells were cultured in medium 1 from days 1 to 5. Medium 1 consisted of DMEM (high glucose) (Life Technologies, 11965092) supplemented with 0.1 mM NEAA (Gibco, 11140-50), 2 mM L-glutamine (Nacalai, 16948-04), 100 U/mL penicillin-streptomycin (Nacalai, 26252-94), 0.01 mM β-mercaptoethanol (Sigma), 1% insulin-transferrin-selenium supplement (ITS: Life Technologies, 41400045), 0.25% Albumax (Thermo Fisher, 11020021), and 10 ng/mL recombinant human activin-A (R&D Systems, 338-AC). Subsequently, the cells were cultured for 1 day in medium 2 which consisted of medium 1 supplemented with 10 μM retinoic acid (Stemgent, 04-0021). On day 6, the medium was replaced with medium 3, and the culture was continued until day 12 in order to induce differentiation into β cells. Medium 3 consisted of DMEM (low glucose) (Life Technologies, 11885084) supplemented with 0.1 mM NEAA, 2 mM L-glutamine, 100 U/mL penicillin-streptomycin, 0.1 mM β-mercaptoethanol, 1% ITS, 0.25% Albumax, and 3 mM nicotinamide (Sigma-Aldrich, N0636-500G). A test compound was added on day 8, and the cells were fixed in 4% paraformaldehyde for analysis using a high-content imager.
A chemical library consisting of about 55,000 compounds was screened for a substance that induced β cell differentiation. […] Fluorescence images were quantified using Operetta high-content imaging system and Harmony image analysis software (PerkinElmer, Germany). The nuclei were identified by DAPI staining, and the positivity of antibody staining was determined from the fluorescence intensity of a cytoplasmic region surrounding the nucleus. The number of cells positive to both insulin and GFP was counted and normalized with the total number of DAPI-positive cells or a positive area. A median of quadruple data was calculated, and screening hits were defined as states in which the number of insulin- and GFP-positive cells was increased as compared with a DMSO control. […] The activity of the selected candidate compounds was further analyzed with Toe human iPS cell assay system in order to select a hit compound having effectiveness for both differentiation into mouse β cells and differentiation into human β cells. A compound was added as described above, and its effectiveness was evaluated from a mRNA expression level by q-PCR in triplet experiments. […]

[2] = test system: human iPS cell Toe strain; assay: Effect to promote differentiation from human iPS cells into insulin-producing cells (insulin-positive cell rate, Reference Example 1); format: cell-based; set-up: key to Activity: the sum of activity values at the two concentrations was obviously higher than the control untreated with compounds while being lower than the positive control was expressed as +; the sum was equivalent to the positive control was expressed as ++; the sum was higher than the positive control was expressed as +++; details: activity intensity: sum of activity values (increment in insulin-positive cell rate) at 2 μM and 10 μM compared with positive control (compound of Synthesis Example 1)
Text: The evaluation system of the effect (efficacy) to promote differentiation from human iPS cells into insulin-producing cells was constructed with reference to known information (Non Patent Document 6). Further, the medium used in each differentiation stage was also produced with reference to known information (differentiation media A to E (Media A to E) described in Non Patent Document 6 were used respectively for stages 1 to 5; however, a medium free from GLP-1 receptor agonist and nicotinamide was used as differentiation medium E).
In order to evaluate the efficacy of each compound, the compound of Synthesis Example 1 was used as a positive control, and dimethylsulfoxide (DMSO) (SIGMA, D2650) with a final concentration of 0.1% was used as a control untreated with compounds. Each compound was dissolved in DMSO, and two types of compound solutions were prepared so as to have final concentrations of 2 μM and 10 μM after the compound was added to the medium. In the following evaluation, the compound solutions were added to the medium to 0.1% that is the final concentration of DMSO.
First, induction from human iPS cell Toe strain (National Institutes of Biomedical Innovation, Health and Nutrition) into cells on day 7 of culture (2 days after replacement with differentiation medium C (cells in the differentiation process from FOXA2-positive primitive gut tube cells into PDX1-positive pancreatic progenitor cells)) was performed according to the method of Non Patent Document 6 for “inducing differentiation from human iPS cells into pancreatic β cells”, and the cells were collected and thereafter stored in liquid nitrogen using Bambanker (NIPPON Genetics Co, Ltd.) at 1×10^7 cells/mL/tube, to produce a cell stock for evaluation. The cell stock was dissolved at the start of the evaluation of efficacy, suspended in differentiation medium C for stage 3 (DMEM high glucose (Life technologies, 11965092), 0.25 μM SANT-1, 0.1 μM LDN193189 (Stemgent, 04-0074), 10 μM SB431542, 2 μM Retinoic acid (Stemgent, 04-0021), 1% B27 serum free supplement (Life technologies, 17504044) and thereafter seeded in a 96-well plate (Corning, #3340) coated with Synthemax II (Corning, #5656) at 1×10^5 cells/well. After culturing for 2 days, the medium was removed, and new differentiation medium C for stage 3 with the compound or only DMSO added was added thereto at 100 μL/well. After culturing for 2 days, the medium was removed, and new differentiation medium D for stage 4 (DMEM high glucose, 0.1 μM LDN193189, 5 μM TGF-β type I receptor kinase inhibitor II (Calbiochem 616452), 0.3 μM (−)-indolactam V (Enzo life science ALX-420-011-C300), 1% B27 serum free supplement) with the compound or only DMSO added was added thereto at 100 μL/well. After culturing for 2 to 3 days, the medium was removed, and new differentiation medium E for stage 5 (GLP-1 receptor agonist and nicotinamide-free; Knockout […] (Life technologies, 12660012), 1% B27 serum free supplement) with the compound or only DMSO added was added thereto at 200 μL/well. After culturing for 2 days, the medium was removed, and a 4% paraformaldehyde phosphorus acid buffer (Wako, 163-20145) was added thereto at 150 μL/well and left standing for 30 to 60 minutes at room temperature to fix the cells. A phosphorus acid buffer (PBS) (Takara, T9181) containing 1% Triton X-100 (Sigma, T8787) was left standing for 15 minutes at room temperature, then washed with PBS-T (Takara, T9183), and was blocked for 1 hour using 20% Blocking One (Nacalai tesque, Tokyo, Japan) diluted with PBS-T at room temperature. After the removal of Blocking One, guinea pig anti-insulin antibody (Abcam, ab7842) diluted 200-fold with 20% Blocking One was added thereto at 50 μL/well, followed by standing at 4° C. overnight. […]

| Compound | number of Pdx1-GFP+Ins+ double-positive cells [1] | Activity [2] |
| --- | --- | --- |
| C[C@H](NC(=O)[C@@H](O)c1cc(F)cc(F)c1)C(=O)N[C@@H]1C(=O)N(C)c2ccccc2-c2ccccc21 [LY411575, reference compound] | increase |  |
| Cc1cc(-c2cnc(NC(=O)C3CCC(=O)c4cccn43)s2)ccc1OC(F)(F)F (centres unmarked) [Example 29] |  | +++ |
| O=C1CCC(C(=O)Nc2nc3ccc(-c4ccc(OC(F)(F)F)cc4)cc3s2)n2cccc21 (centres unmarked) [Example 59] |  | +++ |
| Cc1nc(NC(=O)C2CCC(=O)c3cccn32)sc1-c1ccccc1 (centres unmarked) [Example 34] |  | ++ |
| Cc1nc(NC(=O)C2CCC(=O)c3cccn32)sc1-c1ccc(OCC(C)C)cc1 (centres unmarked) [Example 86] |  | +++ |
| Cc1cc(OC(F)(F)F)ccc1-c1cnc(NC(=O)C2CCC(=O)c3cccn32)s1 (centres unmarked) [Example 28] |  | +++ |
| Cc1cc2n(c1)C(C(=O)Nc1ncc(-c3ccc(OC(F)(F)F)cc3)s1)CCC2=O (centres unmarked) [Example 62] |  | +++ |
| Cc1cc(-c2cnc(NC(=O)C3(C)CCC(=O)c4cccn43)s2)ccc1OC(F)(F)F (centres unmarked) [Example 70] |  | ++ |

Reference: patent US20220339260A1, “METHOD FOR PRODUCING INSULIN-PRODUCING CELL USING DIHYDROINDOLIZINONE DERIVATIVES” (TOKYO INSTITUTE OF TECHNOLOGY, priority 2019, published 2022)
